Assays:
[1] = Resistance to leaching, modified AWPA procedure E11-06 (5 faces protected); assay type: physicochemical
Method: This technique is based on AWPA protocol E11-06. The blocks are soaked in demineralized water at ambient temperature. Water samples are taken regularly and an analysis by ICP spectrometry is carried out (after dilution of the solution by a factor of 250) in order to evaluate the amount of boron present in the solution. The results are represented in FIGS. 5 and 5′.

Gleophyllum trabeum = assay: Soil-block culture test, AWPA protocol E10-06, on leached treated wood blocks; assay type: cell-based; conditions: after 20 weeks of exposure, red pine sapwood blocks leached one week before the test
Method: (§1) Tests for evaluating the degradation-resistance of the wood according to various treatments were carried out by following AWPA protocol E10-06. These tests were carried out using two brown rots: Postia placenta and Gleophyllum trabeum.
(§2) These two preparations are used to treat blocks of 19 mm×19 mm×19 mm of red pine sapwood by means of a partial vacuum of −65 cmHg maintained for 30 minutes. This type of solution forms a gel in the cells of the wood after a period of one hour. In order to accelerate the crosslinking process and to allow drying, the blocks are heated overnight at 60° C.
(§3) In order to validate the capacity of our treatment to retain the boron in the wood and to play its role of wood-preserving agent, the treated blocks were soaked for one week in demineralized water in order to extract all traces of non-chelated boric acid or DOT.
(§4) After drying, the blocks were subjected to the laboratory “soil-block” culture test, strictly according to AWPA protocol E10-06.

Postia placenta = assay: as above; assay type: cell-based; conditions: after 20 weeks of exposure, red pine sapwood blocks leached one week before the test
Method: as §1, §2, §3, §4

Structure (SMILES): OB(O)O [Boric acid, boric acid]
- loss of boron ([1]; over a period of 8 days, red pine sapwood cubes): 67%
- loss of boron ([1]; over a period of 15 days): 32%
- Weight loss (%) Gleophyllum trabeum (Gleophyllum trabeum): 67.5%
- Weight loss (%) Gleophyllum trabeum (Gleophyllum trabeum; listed as boric acid): substantial loss
- Weight loss (%) Postia placenta (Postia placenta): 67.5%
- Weight loss (%) Postia placenta (Postia placenta; listed as boric acid): substantial loss

— US8298582B2, “Polysaccharide-based impregnated solid material with improved stability, processes for the preparation thereof and impregnating solutions used” (Hydro-Quebec, priority 2006, dated 2012)
